Results from the NIST ThermoML archive (doi:10.1016/j.tca.2009.10.001).
Numbers after ± are expanded uncertainties.

Test: xn = mol fraction of the nth substance listed
Details: 101 kPa, Liquid; for viscosity: Capillary tube (Ostwald / Ubbelohde) method; for speed of sound: Linear variable-path acoustic interferometer; for mass density: Pycnometric method

CC#N [acetonitrile] + Cc1ccccc1
Details | mass density, 298.15 K [kg/m3] | speed of sound, 298.15 K [m/s] | speed of sound, 303.15 K [m/s] | viscosity, 298.15 K [mPa·s] | viscosity, 303.15 K [mPa·s]
x2 = 0 | 775.3 ± 0.3 | 1271.3 ± 1.8 | 1251.9 ± 1.8 | 0.3696 ± 0.0053 | 0.3554 ± 0.0052
x2 = 0.0506 | 784.6 ± 0.3 | 1273.8 ± 1.8 | 1253.9 ± 1.7 | 0.3809 ± 0.0053 | 0.3653 ± 0.0053
x2 = 0.1082 | 794.1 ± 0.3 | 1276.5 ± 1.7 | 1256.3 ± 1.7 | 0.394 ± 0.0053 | 0.3772 ± 0.0053
x2 = 0.1704 | 803.3 ± 0.3 | 1279.3 ± 1.7 | 1259 ± 1.7 | 0.408 ± 0.0054 | 0.39 ± 0.0053
x2 = 0.2421 | 812.6 ± 0.3 | 1282.4 ± 1.7 | 1261.8 ± 1.7 | 0.4241 ± 0.0054 | 0.4045 ± 0.0053
x2 = 0.3228 | 821.8 ± 0.3 | 1285.7 ± 1.7 | – | 0.4423 ± 0.0054 | 0.4211 ± 0.0053
x2 = 0.4163 | 830.7 ± 0.3 | 1289.2 ± 1.6 | – | 0.4625 ± 0.0055 | 0.44 ± 0.0054
x2 = 0.5288 | 839.6 ± 0.3 | 1292 ± 1.6 | – | 0.486 ± 0.0055 | 0.4614 ± 0.0054
x2 = 0.6577 | 847.5 ± 0.3 | 1294.5 ± 1.6 | – | 0.5098 ± 0.0055 | 0.4834 ± 0.0054
x2 = 0.8089 | 854.6 ± 0.3 | 1296.7 ± 1.6 | – | 0.5353 ± 0.0055 | 0.5069 ± 0.0054
